Assay results as given in paper PMC9995496, “A screen for MeCP2-TBL1 interaction inhibitors using a luminescence-based assay” (Scientific Reports, 2023).
Counter-ions that a name gives are not always drawn. Like-named read-outs stand apart in the source and are kept apart here.

System: PRKACA-PRKAR2A interaction (SmBiT-PRKACA / LgBiT-PRKAR2A), protein kinase A
Design: NanoLuc complementation counter-screen in cell extract, PRKACA with PRKAR2A, loss of luminescence, detects NanoLuc interference
Conditions: 0.5 h, 20 µM, inhibitor
[1] = counter-screen for NanoLuc interference
[2] = counter-screen for NanoLuc interference, Inh (PKA)

Inh (PKA) [1]	SMILES	further results
61.94%	CC(C)=CCC/C(C)=C/CC/C(C)=C/CSc1ccccc1C(=O)O [UM0141623:01, Salirasib]	
9.291%	CC(C)(C)NC(=O)[C@@H]1C[C@@H]2CCCC[C@@H]2CN1C[C@@H](O)[C@H](Cc1ccccc1)NC(=O)[C@H](CC(N)=O)NC(=O)c1ccc2ccccc2n1 [UM0141624:01, Saquinavir mesylate]	
17.29%	COc1nccc(-c2c(-c3ccc(F)cc3)ncn2[C@H]2CC[C@H](O)CC2)n1 [UM0141625:01, SB 239063]	
	O=C(Nc1ccc2[nH]nc(-c3ccncc3)c2c1)[C@@H]1CCN(CC(=O)N2CCN(c3ccc(-c4ncccn4)cc3)CC2)C1 [UM0141626:01, SCH772984]	Inh (PKA) [2]: 11.73%
3.449%	CCOc1ccc(Oc2ccc(OCc3cc(F)ccc3F)cc2)c(N)c1 [UM0141627:01, SEA0400]	
	CCCc1nn(C)c2c(=O)[nH]c(-c3cc(S(=O)(=O)N4CCN(C)CC4)ccc3OCC)nc12 [UM0141628:01, Sildenafil]	Inh (PKA) [2]: -0.5342%
	COc1ccc2c(O[C@@H]3C[C@H]4C(=O)N[C@]5(C(=O)NS(=O)(=O)C6CC6)C[C@H]5/C=C\CCCCN(C)C(=O)[C@@H]4C3)cc(-c3nc(C(C)C)cs3)nc2c1C [UM0141629:01, Simeprevir]	Inh (PKA): 16.13
4.073%	O=C1c2ccccc2C(=O)c2oc(-c3ccccc3)nc21 [UM0141630:01, SJB2-043]	
17.25%	O=C1c2ccc(Nc3ccc(F)cc3F)cc2CCc2ccc(OC[C@H](O)CO)cc21 [UM0141631:01, Skepinone-L]	
49.23%	CC(C)NC(=O)COc1cccc(-c2nc(Nc3ccc4[nH]ncc4c3)c3ccccc3n2)c1 [UM0141632:01, SLx-2119]	
46.56%	Cc1c[nH]c(/C=C2\C(=O)Nc3ccccc32)c1CCC(=O)O [UM0141633:01, SU 5402]	
47.57%	CCOC(=O)C1=CCCC[C@H]1S(=O)(=O)Nc1ccc(F)cc1Cl [UM0141634:01, TAK-242]	
2.103%	COc1cccc2c1c(O)c(C(=O)N(C)c1ccc(C(F)(F)F)cc1)c(=O)n2C [UM0141635:01, Tasquinimod]	
1.649%	Fc1ccccc1-c1nc2ccn(Cc3ccc(-c4ccc(C(F)(F)F)cc4C(F)(F)F)nn3)cc-2n1 [UM0141636:01, Tegobuvir]	
	Cc1cc(N2CCN([C@@H]3CN[C@H](C(=O)N4CCSC4)C3)CC2)n(-c2ccccc2)n1 [UM0141637:01, Teneligliptin hydrobromide]	Inh (PKA): -1.766%
	Cn1c(COP(=O)(NCCBr)NCCBr)cnc1[N+](=O)[O-] [UM0141638:01, TH-302]	Inh (PKA): 1.841%
0.165%	N=C1CCCN1Cc1[nH]c(=O)[nH]c(=O)c1Cl [UM0141639:01, Tipiracil hydrochloride]	
-0.04176%	Cn1c(=O)cc(N2CCC[C@@H](N)C2)n(Cc2cc(F)ccc2C#N)c1=O [UM0141640:01, Trelagliptin]	
12.61%	Cc1ccc(-c2csc3ncnc(SCCC(=O)O)c23)cc1 [UM0141643:01, TTP 22]	

Inh (PKA) [1]	SMILES	further results
3.937%	CCC1=C[C@@H]2CN(C1)Cc1c([nH]c3ccccc13)[C@@](C(=O)OC)(c1cc3c(cc1OC)N(C)[C@H]1[C@@](O)(C(=O)OC)[C@H](OC(C)=O)[C@]4(CC)C=CCN5CC[C@]31[C@@H]54)C2 [UM0141644:01, Vinorelbine ditartrate]	
14.62%	Cc1cnc(Nc2ccc(F)cc2Cl)nc1-c1c[nH]c(C(=O)N[C@H](CO)c2cccc(Cl)c2)c1 [UM0141646:01, VX-11e]	
-3.897%	O=C(Nc1ccc(-c2ccnc(Nc3ccc(N4CCOCC4)cc3)n2)cc1)C1CCCN1 (stereo not drawn) [UM0141648:01, XL019]	
43.07%	CC(C)c1cc(CNc2nc(Nc3cc(C4CC4)[nH]n3)cc(N3CCN(C)CC3)n2)on1 [UM0141649:01, XL228]	
18.58%	CCOc1cc(C(=O)N2CCC(N3CCN(C)CC3)CC2)ccc1Nc1ncc2c(n1)N(C1CCCC1)c1ccccc1C(=O)N2C [UM0141651:01, XMD17-109]	
14.04%	CCOc1cc(N2CCC(O)CC2)ccc1Nc1ncc2c(n1)N(C)c1ccccc1C(=O)N2C [UM0141652:01, XMD8-92]	
4.248%	COc1ccc(C(=O)CC2(O)C(=O)Nc3c(Cl)ccc(Cl)c32)cc1 (stereo not drawn) [UM0141653:01, YK-4-279]	
0.673%	C[C@]1(c2nc3c(C(N)=O)cccc3[nH]2)CCCN1 [UM0141654:01, Veliparib dihydrochloride]	
21.79%	N[C@@H]1CCCN(c2c(/C=C3\SC(=O)NC3=O)cccc2-c2ccccc2)C1 [UM0141655:01, AZD1208]	
84.34%	CC(=O)O/N=C1\C(=O)N(Cc2cc(Cl)ccc2Cl)c2ccc(Cl)cc21 [UM0141658:01, LDN 57444]	
12.94%	Cc1ccc(/C=C2\CNC/C(=C\c3ccc(C)cc3)C2=O)cc1 [UM0141659:01, NSC 632839 hydrochloride]	
10.15%	CC(C)(C(=O)NCC(F)(F)C(F)(F)F)C(=O)N[C@@H]1C(=O)Nc2ccccc2-c2ccccc21 [UM0141660:01, RO4929097]	
5.084%	O=C(O)CC[C@H]1CC[C@@](c2cc(F)ccc2F)(S(=O)(=O)c2ccc(Cl)cc2)CC1 [UM0141661:01, MK-0752]	
-0.4944%	CC(C)C[C@H](NC(=O)CNC(=O)c1cc(Cl)ccc1Cl)B1OC(=O)C(CC(=O)O)(CC(=O)O)O1 [UM0141662:01, MLN9708]	
0.9496%	CC(C)C[C@H](NC(=O)CNC(=O)c1cc(Cl)ccc1Cl)B(O)O [UM0141663:01, MLN2238]	
2.205%	CC(C)C[C@H](NC(=O)[C@@H](NC(=O)c1cccc(-c2ccccc2)n1)[C@@H](C)O)B(O)O [UM0141664:01, CEP-18770]	
2.946%	COc1ccc(C[C@H](NC(=O)[C@H](C)NC(=O)CN2CCOCC2)C(=O)N[C@@H](Cc2ccccc2)C(=O)[C@@]2(C)CO2)cc1 [UM0141665:01, ONX-0914 (PR-957)]	
4.42%	C[C@H](NC(=O)Cc1cc(F)cc(F)c1)C(=O)N[C@@H]1C(=O)N(C)c2ccccc2-c2ccccc21 [UM0141666:01, YO-01027 (Dibenzazepine, DBZ)]	
13.09%	C[C@H](NC(=O)[C@@H](O)c1cc(F)cc(F)c1)C(=O)N[C@@H]1C(=O)N(C)c2ccccc2-c2ccccc21 [UM0141667:01, LY-411575]	

Inh (PKA) [1]	SMILES	further results
25.28%	NC(=O)[C@@H](CCC(F)(F)F)N(Cc1ccc(-c2ncon2)cc1F)S(=O)(=O)c1ccc(Cl)cc1 [UM0141668:01, BMS-708163 (Avagacestat)]	
-1.62%	C[C@H](NC(=O)CCC(F)(F)F)C(=O)N[C@@H]1C(=O)N(CCO)c2ncccc2-c2ccccc21 [UM0141669:01, LY3039478]	
3.662%	CC(C)(C)OC(=O)N[C@H]1CCCCC/C=C\[C@@H]2C[C@@]2(C(=O)NS(=O)(=O)C2CC2)NC(=O)[C@@H]2C[C@@H](OC(=O)N3Cc4cccc(F)c4C3)CN2C1=O [UM0141670:01, Danoprevir (RG7227)]	
3.048%	CCC[C@H](NC(=O)[C@@H]1[C@H]2CCC[C@H]2CN1C(=O)[C@@H](NC(=O)[C@@H](NC(=O)c1cnccn1)C1CCCCC1)C(C)(C)C)C(=O)C(=O)NC1CC1 [UM0141671:01, Telaprevir (VX-950)]	
8.385%	CC(C)(C)C#Cc1cc(N(C(=O)[C@H]2CC[C@H](C)CC2)[C@H]2CC[C@H](O)CC2)c(C(=O)O)s1 [UM0141672:01, VX-222 (VCH-222, Lomibuvir)]	
1.695%	CC#CCn1c(N2CCC[C@@H](N)C2)nc2c1c(=O)n(Cc1nc(C)c3ccccc3n1)c(=O)n2C [UM0141673:01, Linagliptin (BI-1356)]	
	N[C@@H](CC(=O)N1CCn2c(nnc2C(F)(F)F)C1)Cc1cc(F)c(F)cc1F [UM0141674:01, Sitagliptin phosphate monohydrate]	Inh (PKA) [2]: 0.152%
0.7818%	N#C[C@@H]1CCCN1C(=O)CNC12CC3CC(CC(O)(C3)C1)C2 [UM0141675:01, Vildagliptin (LAF-237)]	
	Cn1c(=O)cc(N2CCC[C@@H](N)C2)n(Cc2ccccc2C#N)c1=O [UM0141676:01, Alogliptin (SYR-322)]	Inh (PKA) [2]: 0.7637%
	COC(=O)N[C@H](C(=O)N[C@@H](Cc1ccccc1)[C@@H](O)CN(Cc1ccc(-c2ccccn2)cc1)NC(=O)[C@@H](NC(=O)OC)C(C)(C)C)C(C)(C)C [UM0141677:01, Atazanavir sulfate (BMS-232632-05)]	Inh (PKA) [2]: 2.404%
0.03588%	CNC(=O)[C@@H](NC(=O)[C@H](CC(C)C)[C@H](O)C(=O)NO)C(C)(C)C [UM0141678:01, Marimastat]	
-1.568%	CNC(=O)[C@H](Cc1c[nH]c2ccccc12)NC(=O)[C@@H](CC(=O)NO)CC(C)C [UM0141679:01, GM 6001]	
15.79%	CCCC(C)NC(=O)c1ccc(Cl)c(Cl)c1 (stereo not drawn) [UM0141680:01, NSC 405020]	
	C[C@H]1c2cccc(O)c2C(=O)C2=C(O)[C@]3(O)C(=O)C(C(N)=O)=C(O)[C@@H](N(C)C)[C@@H]3[C@@H](O)[C@@H]21 [UM0141681:01, Doxycycline hyclate]	Inh (PKA) [2]: 1.233%
8.06%	C=CCNC1=C2C[C@@H](C)C[C@H](OC)[C@H](O)[C@@H](C)/C=C(\C)[C@H](OC(N)=O)[C@@H](OC)/C=C\C=C(/C)C(=O)NC(=CC1=O)C2=O [UM0141682:01, 17-AAG (KOS953)]	
8.919%	CC(C)c1cc(C(=O)N2Cc3ccc(CN4CCN(C)CC4)cc3C2)c(O)cc1O [UM0141683:01, AT13387]	
15.87%	CCNC(=O)c1noc(-c2cc(C(C)C)c(O)cc2O)c1-c1ccc(CN2CCOCC2)cc1 [UM0141684:01, AUY922 (NVP-AUY922)]	
2.432%	COc1c(C)cnc(Cn2cnc3c(Cl)nc(N)nc32)c1C [UM0141685:01, BIIB021]	

SMILES	Inh (PKA) [1]	further results
CC(C)[C@]12O[C@H]1[C@@H]1O[C@]13[C@]1(O[C@H]1C[C@H]1C4=C(CC[C@@]13C)C(=O)OC4)[C@@H]2O [UM0141641:01, Triptolide]	1.248%	
